Experimental data: US10183940B2, “Aryl and heteroaryl-fused tetrahydro-1,4-oxazepine amides as somatostatin receptor subtype 4 (SSTR4) agonists” (Boehringer Ingelheim International GmbH, priority 2014, dated 2019)

Legend:
[1] = target: human Somatostatin 4 receptor (SSTR4) (Homo sapiens (Human), UniProt P31391); assay: cAMP assay with human Somatostatin 4 receptor; format: cell-based; conditions: hSSTR4 expressing H4 cells, inhibition of Forskolin-stimulated cAMP; read-out: SSTR4 agonism EC50
Experimental: Method description for cAMP assay with human Somatostatin 4 receptor.
The activation of the SSTR4 receptor (Gi coupled) causes an inhibition of intracellular cAMP after stimulation with Forskolin, which can be quantifiable by use of a suitable assay Kit and an adequate plate reader. This technique is used to characterize pharmacological effects of the SSTR4 receptor agonists by use of hSSTR4 expressing H4 cells.
Compounds are dissolved and diluted in DMSO. The final test solution contains […]. The cAMP standard (Lance cAMP 384 Kit; PerkinElmer, Cat #AD0264) is prepared in assay buffer (HBSS with 0.1% BSA, 5 mM HEPES, […], pH 7.4) containing 1% DMSO and the cAMP standard curve is included at least on one plate. Cells are centrifuged and suspended in assay buffer (incl. 1:100 diluted Alexa antibody).
For the assay 5 μl of a cell suspension (approximately 5000 cells/well)—incl. Alexa antibody (diluted 1:100) are added into a 384 well MTP microtitre plate excepting one row or column (depending on the plate layout), which is reserved for the standard curve. Then 2 μl of compound sample is added as concentration response curve (e.g. 1e-5 M to 6e-10 M), usually in triplicates. Each assay contains incubations with vehicle controls instead of compound as controls for non-inhibited cAMP generation (100% CTL; ‘high values’) and incubations with 1 μM Somatosatin as controls for full inhibition and background (0% CTL; ‘low values’). After approximately 10-15 min incubation time 3 μl Forskolin (dissolved in DMSO, final conc. 15 μM) is added. Then the plates are shaken briefly and incubated for 60 min at room temperature. After 60 min 10 μl of the detection mix is added into all wells followed by an additional incubation period of 1 h. The plates are read in a suitable plate reader.
The analysis of the data is based on the “ratio” of the time-resolved fluorescence measurements of donor and acceptor fluorophore (Ex: 320 nm; Em1: 665 nm; Em2: 615 nm; ratio 665/615). From this ratio, cAMP concentrations are calculated from standard curve and the EC50 is estimated by least square curve fit program.

[2] = Metabolic stability in human liver microsomes; format: in vitro ADME; conditions: pooled human liver microsomes, 37° C., 1 μM test compound, NADPH; for half-life at 1 μM: pH 7.6, read-out: Half-life t1/2
Experimental: The metabolic stability of the compounds according to the invention may be investigated as follows:
The metabolic degradation of the test compound is assayed at 37° C. with pooled human liver microsomes. The final incubation volume of 100 μl per time point contains TRIS buffer pH 7.6 at room temperature (0.1 M), magnesium chloride (5 mM), microsomal protein (1 mg/mL) and the test compound at a final concentration of 1 μM. Following a short preincubation period at 37° C., the reactions are initiated by addition of beta-nicotinamide adenine dinucleotide phosphate, reduced form (NADPH, 1 mM), and terminated by transferring an aliquot into solvent after different time points. After centrifugation (10000 g, 5 min), an aliquot of the supernatant is assayed by LC-MS/MS for the amount of parent compound. The half-life is determined by the slope of the semi-logarithmic plot of the concentration-time profile.

human SSTR1 = human SSTR1 (Homo sapiens (Human), UniProt P30872); assay: Radioligand binding assay, human SSTR1
From the text: (§1) Radioligand Binding Assays
(§2) Method description for binding assays with human Somatostatin receptors by use of CHO cell membranes expressing recombinant human SSTR1 or human SSTR2 or human SSTR3 or human SSTR4 or human SSTR5
(§3) Receptor binding assays refer to a technique in which labeled receptor ligands are used to detect binding to a receptor. In competition experiments test compounds, which are not labeled, compete with the binding side of a labeled ligand. The displacement of the labeled ligand by the test compound leads to a decreased signal.
(§4) For the binding experiments 200 μL of membrane homogenate from one of the following protein amounts is used: hSSTR1 (40 μg/well); hSSTR2 (25 μg/well); hSSTR3 (1.5 μg/well); hSSTR4 (0.5 μg/well); hSSTR5 (25 μg/well). The homogenate is incubated with 0.05 nM of radioligand ([3-125I-Tyr]-Somatostatin-(1-14)) in addition to increasing concentrations of a test compound or vehicle (100% binding) in a total volume of 250 μL using a Hepes buffer (10 mM, EDTA 1 mM, MgCl2 5 mM, pH7.6, BSA 0.5%, Bacitracin 0.003%, DMSO 1% for 180 min at room temperature. The incubation is terminated by filtration with ice cold NaCl 0.9% through polyethyleneimine treated (0.3%) GF/B glass fiber filters using a cell harvester. The protein-bound radioactivity is measured in a suitable reader. The non-specific binding is defined as radioactivity bound in the presence of 1 μM Somatostatin-14 during the incubation period.
(§5) The analysis of the concentration-binding curves is performed by computer-assisted nonlinear least square curve fitting method using the model of one receptor binding site.

human SSTR2 = human SSTR2 (Homo sapiens (Human), UniProt P30874); assay: Radioligand binding assay, human SSTR2
From the text: as §1, §2, §3, §4, §5

human SSTR3 = human SSTR3 (Homo sapiens (Human), UniProt P32745); assay: Radioligand binding assay, human SSTR3
From the text: as §1, §2, §3, §4, §5

human SSTR5 = human SSTR5 (Homo sapiens (Human), UniProt P35346); assay: Radioligand binding assay, human SSTR5
From the text: as §1, §2, §3, §4, §5

human SSTR4 = human SSTR4 (Homo sapiens (Human), UniProt P31391); assay: Radioligand binding assay, human SSTR4
From the text: as §1, §2, §3, §4, §5

Sequence of human SSTR5 (P35346 whole entry): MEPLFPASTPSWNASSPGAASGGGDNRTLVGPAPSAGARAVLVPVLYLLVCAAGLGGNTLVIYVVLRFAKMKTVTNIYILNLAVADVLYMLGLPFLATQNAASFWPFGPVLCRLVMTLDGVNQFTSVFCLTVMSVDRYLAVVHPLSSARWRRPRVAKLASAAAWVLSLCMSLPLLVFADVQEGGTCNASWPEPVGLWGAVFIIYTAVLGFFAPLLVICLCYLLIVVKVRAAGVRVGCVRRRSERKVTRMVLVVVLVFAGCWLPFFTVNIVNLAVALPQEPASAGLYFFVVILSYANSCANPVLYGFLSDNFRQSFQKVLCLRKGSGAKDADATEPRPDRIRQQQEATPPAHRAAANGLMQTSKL
Sequence of human SSTR1 (P30872 whole entry): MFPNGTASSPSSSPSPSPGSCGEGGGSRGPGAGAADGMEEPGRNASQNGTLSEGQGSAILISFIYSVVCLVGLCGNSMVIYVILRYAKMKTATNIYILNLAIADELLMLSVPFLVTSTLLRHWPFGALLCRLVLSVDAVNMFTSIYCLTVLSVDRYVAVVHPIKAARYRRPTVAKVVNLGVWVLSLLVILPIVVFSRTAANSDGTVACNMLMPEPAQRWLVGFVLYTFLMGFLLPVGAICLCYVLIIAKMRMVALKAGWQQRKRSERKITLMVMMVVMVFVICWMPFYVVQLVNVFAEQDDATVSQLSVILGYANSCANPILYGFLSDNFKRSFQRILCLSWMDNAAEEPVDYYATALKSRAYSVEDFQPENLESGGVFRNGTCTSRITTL
Sequence of human Somatostatin 4 receptor (SSTR4) (P31391 whole entry): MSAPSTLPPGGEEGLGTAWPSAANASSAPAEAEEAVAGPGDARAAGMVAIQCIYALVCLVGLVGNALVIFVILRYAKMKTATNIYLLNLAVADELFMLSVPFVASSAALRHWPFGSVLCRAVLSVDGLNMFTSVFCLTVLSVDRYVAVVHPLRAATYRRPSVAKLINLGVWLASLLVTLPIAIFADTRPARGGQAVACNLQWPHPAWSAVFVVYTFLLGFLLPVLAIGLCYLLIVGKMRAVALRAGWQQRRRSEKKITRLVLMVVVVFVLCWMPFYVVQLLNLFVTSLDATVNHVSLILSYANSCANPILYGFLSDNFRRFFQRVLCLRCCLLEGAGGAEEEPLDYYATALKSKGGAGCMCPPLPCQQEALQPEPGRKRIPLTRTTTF
Sequence of human SSTR4 (P31391 whole entry): as above
Sequence of human SSTR2 (P30874 whole entry): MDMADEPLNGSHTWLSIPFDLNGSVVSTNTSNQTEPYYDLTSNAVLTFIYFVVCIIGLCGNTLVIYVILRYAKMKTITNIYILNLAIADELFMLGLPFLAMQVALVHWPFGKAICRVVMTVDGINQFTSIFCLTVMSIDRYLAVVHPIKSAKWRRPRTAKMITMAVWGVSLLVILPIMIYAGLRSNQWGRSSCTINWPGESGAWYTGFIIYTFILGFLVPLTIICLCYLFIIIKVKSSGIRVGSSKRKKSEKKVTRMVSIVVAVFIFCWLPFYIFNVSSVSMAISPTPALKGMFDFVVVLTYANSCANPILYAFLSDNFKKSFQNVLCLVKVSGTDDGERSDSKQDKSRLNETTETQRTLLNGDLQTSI
Sequence of human SSTR3 (P32745 whole entry): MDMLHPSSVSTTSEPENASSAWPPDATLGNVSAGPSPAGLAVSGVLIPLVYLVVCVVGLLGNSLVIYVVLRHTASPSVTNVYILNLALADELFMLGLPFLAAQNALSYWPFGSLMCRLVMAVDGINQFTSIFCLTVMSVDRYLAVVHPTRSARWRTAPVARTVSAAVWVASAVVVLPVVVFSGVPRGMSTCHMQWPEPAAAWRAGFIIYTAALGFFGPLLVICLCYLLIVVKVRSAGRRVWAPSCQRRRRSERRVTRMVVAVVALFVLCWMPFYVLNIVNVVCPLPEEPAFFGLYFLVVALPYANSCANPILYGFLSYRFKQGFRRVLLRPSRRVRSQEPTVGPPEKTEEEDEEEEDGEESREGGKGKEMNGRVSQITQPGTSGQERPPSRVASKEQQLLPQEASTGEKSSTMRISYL

SMILES | EC50 [1] [µM] | half-life at 1 μM [2] [h] | Ki (human SSTR1) [µM] | Ki (human SSTR2) [µM] | Ki (human SSTR3) [µM] | Ki (human SSTR5) [µM] | Ki (human SSTR4) [µM] | Half-life t1/2 [2] [h]
Cn1nc(C(C)(C)NC(=O)c2cccc3c2OCCNC3)c2cccc(F)c21 [Example 39] | 0.0021 | 0.85 | 9.01 | 9.63 | 8.71 | 9.86 | 0.0291 | 
CC(C)(NC(=O)c1cccc2c1OCCNC2)c1ccnc2ccccc12 [Example 6] | 0.0084 |  | 9.01 | 9.63 | 8.71 | 9.86 | 0.104 | 2.17
Cn1nc(C(C)(C)NC(=O)c2ccnc3c2OCCNC3)c2ccccc21 [Example 20] | 0.0175 | > 2.17 | 9.45 | 9.6 | 8.62 | 9.75 | 0.574 | 
Cn1nc(C(C)(C)NC(=O)c2nccc3c2OCCNC3)c2ccccc21 [Example 19] | 0.0146 |  | 9.45 | 9.6 | 8.62 | 9.75 | 0.613 | 2.17
CC(C)(NC(=O)c1cccc2c1OCCNC2)c1noc2c(Cl)cccc12 [Example 38] | 0.0029 | 0.583 |  |  |  |  |  | 
CC(C)(NC(=O)c1cccc2c1OCCNC2)c1n[nH]c2c(Cl)cccc12 [Example 44] | 0.0013 | > 2.17 |  |  |  |  |  | 
Cc1cccc2c(C(C)(C)NC(=O)c3cncc4c3OCCNC4)nn(C)c12 [Example 42] | 0.0158 | > 2.17 | 9.45 | 9.6 | 8.62 | 9.75 | 0.532 | 
CC(C)(NC(=O)c1cccc2c1OCCNC2)c1cccc2ccccc12 [Example 7] | 0.0014 | 0.533 |  |  |  |  |  | 
CC(C)(NC(=O)c1cccc2c1OCCNC2)c1ccc(Cl)cc1.Cl [Example 17] | 0.0082 | 0.233 |  |  |  |  |  | 

Now from value to compound:

EC50 [1] [µM] | half-life at 1 μM [2] [h] | Ki (human SSTR1) [µM] | Ki (human SSTR2) [µM] | Ki (human SSTR3) [µM] | Ki (human SSTR5) [µM] | Ki (human SSTR4) [µM] | Half-life t1/2 [2] [h] | SMILES
0.0025 | > 2.17 | 9.45 | 9.6 | 8.62 | 9.75 | 0.065 |  | Cc1nnc(C(C)(C)NC(=O)c2cccc3c2OCCNC3)c2ccccc12 [Example 26]
0.0044 | 1.22 | 7.82 | 9.63 | 8.71 | 9.86 | 0.0395 |  | Cn1nc(C(C)(C)NC(=O)c2cccc3c2OCCNC3)c2ccccc21 [Example 18]
0.002 | > 2.17 | 9.01 | 9.63 | 8.71 | 9.86 | 0.0532 |  | Cc1cccn2c(C(C)(C)NC(=O)c3cccc4c3OCCNC4)ncc12 [Example 47]
0.0016 | 1.2 |  |  |  |  |  |  | Cc1cccn2c(C(C)(C)NC(=O)c3cccc4c3OCCNC4)nc(C)c12.Cl [Example 53]
0.0028 | 0.9 |  |  |  |  |  |  | Cc1cccc2c(C(C)(C)NC(=O)c3cccc4c3OCCNC4)noc12 [Example 32]
0.0008 | 1.65 | 9.45 | 9.6 | 8.62 | 9.75 | 0.0217 |  | Cc1cccc2c(C(C)(C)NC(=O)c3cccc4c3OCCNC4)n[nH]c12 [Example 33]
0.0136 | > 2.17 |  |  |  |  |  |  | Cc1cccn2c(C(C)(C)NC(=O)c3nccc4c3OCCNC4)ncc12 [Example 72]
